Data reported in US10865208B2, “ATG7 inhibitors and the uses thereof” (Millennium Pharmaceuticals, Inc., priority 2016, dated 2020).
pIC50: −log10 of the molar value.

Target: recombinant human His-ATG7 enzyme (Homo sapiens (Human), UniProt O95352)
Test: ATG7 Enzyme Assay (HTRF/FRET, ATG3-GST and Flag-Gabarap)
Assay type: biochemical
Details: for inhibition at 0.123 µM: Concentration 0.123 μM; for inhibition at 0.123 µM / inhibition at 0.111 µM: read-out: Percent Inhibition; for inhibition at 0.111 µM: Concentration 0.111 μM
Outline: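 0.15 nM His-ATG7 was reacted with 5 nM ATG3-GST, 5 nM Flag-Gabarap and 10 μM ATP in HEPES pH 7.5 containing MgCl2, GSH and TCEP for 105 min at 24° C, then stopped with EDTA/KF. Eu-anti-Flag and anti-GST-APC HTRF was read after 2 h. Results are given as single-concentration % inhibition or IC50.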

Chain of recombinant human His-ATG7 enzyme (O95352 whole entry): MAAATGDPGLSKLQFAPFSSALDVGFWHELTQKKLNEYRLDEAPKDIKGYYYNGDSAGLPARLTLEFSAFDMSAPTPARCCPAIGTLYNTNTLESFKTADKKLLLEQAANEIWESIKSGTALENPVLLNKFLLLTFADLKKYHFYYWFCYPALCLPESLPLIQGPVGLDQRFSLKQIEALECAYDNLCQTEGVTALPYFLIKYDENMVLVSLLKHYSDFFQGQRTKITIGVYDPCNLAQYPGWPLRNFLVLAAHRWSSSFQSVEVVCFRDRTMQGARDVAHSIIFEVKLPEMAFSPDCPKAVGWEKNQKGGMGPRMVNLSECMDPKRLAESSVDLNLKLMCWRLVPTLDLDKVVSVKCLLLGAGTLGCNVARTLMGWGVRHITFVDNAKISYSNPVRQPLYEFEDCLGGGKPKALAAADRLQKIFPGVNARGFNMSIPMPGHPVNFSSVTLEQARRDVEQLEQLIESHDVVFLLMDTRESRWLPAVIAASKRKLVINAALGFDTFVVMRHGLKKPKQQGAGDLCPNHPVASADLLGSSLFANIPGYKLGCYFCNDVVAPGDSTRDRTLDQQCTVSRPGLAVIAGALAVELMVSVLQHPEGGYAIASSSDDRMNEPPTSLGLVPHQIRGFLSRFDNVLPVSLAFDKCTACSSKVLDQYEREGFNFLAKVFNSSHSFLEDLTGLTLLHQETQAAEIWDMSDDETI

pIC50	inhibition at 0.123 µM [%]	inhibition at 0.111 µM [%]	Structure (SMILES)
7.30 to 7.70	76	–	Nc1ncnc2c1c(SCC1=CCCCC1)nn2[C@@H]1O[C@H](COS(N)(=O)=O)[C@@H](O)[C@H]1O [Compound I-91, [(2R,3S,4R,5R)-5-{4-amino-3-[(cyclohex-1-en-1-ylmethyl)sulfanyl]-1H-pyrazolo[3,4-d]pyrimidin-1-yl}-3,4-dihydroxytetrahydrofuran-2-yl]methyl Sulfamate]
6.30 to 7.00	50	–	CC1OCCC1Sc1nn([C@@H]2O[C@H](COS(N)(=O)=O)[C@@H](O)[C@H]2O)c2ncnc(N)c12 (some centres unmarked) [Compound I-92]
6.30 to 7.00	47	–	CSCc1nn([C@@H]2O[C@H](COS(N)(=O)=O)[C@@H](O)[C@H]2O)c2ncnc(N)c12 [Compound I-93, [(2R,3S,4R,5R)-5-{4-amino-3-[(methylsulfanyl)methyl]-1H-pyrazolo[3,4-d]pyrimidin-1-yl}-3,4-dihydroxytetrahydrofuran-2-yl]methyl Sulfamate]
6.30 to 7.00	–	28	CSc1nn([C@@H]2O[C@@H](COS(N)(=O)=O)[C@@H](O)[C@H]2O)c2ncnc(N)c12 [Compound I-94, {(2S,3S,4R,5R)-5-[4-amino-3-(methylsulfanyl)-1H-pyrazolo[3,4-d]pyrimidin-1-yl]-3,4-dihydroxytetrahydrofuran-2-yl}methyl Sulfamate]
6.30 to 7.00	47	–	CC(C)Sc1nn([C@@H]2O[C@@H](COS(N)(=O)=O)[C@@H](O)[C@H]2O)c2ncnc(N)c12 [Compound I-95, {(2S,3S,4R,5R)-5-[4-amino-3-(isopropylsulfanyl)-1H-pyrazolo[3,4-d]pyrimidin-1-yl]-3,4-dihydroxytetrahydrofuran-2-yl}methyl Sulfamate]
6.30 to 7.00	–	44	CSc1nn([C@@H]2O[C@@H](COS(N)(=O)=O)[C@@H](O)[C@@H]2F)c2ncnc(N)c12 [Compound I-96, {(2S,3R,4S,5R)-5-[4-amino-3-(methylsulfanyl)-1H-pyrazolo[3,4-d]pyrimidin-1-yl]-4-fluoro-3-hydroxytetrahydrofuran-2-yl}methyl Sulfamate]
7.30 to 7.70	–	66	Nc1ncnc2c1c(SCC1CC(F)(F)C1)nn2[C@@H]1O[C@H](COS(N)(=O)=O)[C@@H](O)[C@@H]1F [Compound I-97, [(2R,3R,4S,5R)-5-(4-amino-3-{[(3,3-difluorocyclobutyl)methyl]sulfanyl}-1H-pyrazolo[3,4-d]pyrimidin-1-yl)-4-fluoro-3-hydroxytetrahydrofuran-2-yl]methyl sulfamate]
7.30 to 7.70	–	77	Nc1ncnc2c1c(SC(F)F)nn2[C@@H]1O[C@H](COS(N)(=O)=O)[C@@H](O)[C@@H]1F [Compound I-98, [(2R,3R,4S,5R)-5-{4-amino-3-[(difluoromethyl)sulfanyl]-1H-pyrazolo[3,4-d]pyrimidin-1-yl}-4-fluoro-3-hydroxytetrahydrofuran-2-yl]methyl sulfamate]
7.30 to 7.70	–	70	Nc1ncnc2c1c(OC(F)F)nn2[C@@H]1O[C@H](COS(N)(=O)=O)[C@@H](O)[C@@H]1F [Compound I-99, {(2R,3R,4S,5R)-5-[4-amino-3-(difluoromethoxy)-1H-pyrazolo[3,4-d]pyrimidin-1-yl]-4-fluoro-3-hydroxytetrahydrofuran-2-yl}methyl Sulfamate]
6.30 to 7.00	–	50	Cc1occc1Sc1nn([C@@H]2O[C@H](COS(N)(=O)=O)[C@@H](O)[C@@H]2F)c2ncnc(N)c12 [Compound I-100, [(2R,3R,4S,5R)-5-{4-amino-3-[(2-methyl-3-furyl)sulfanyl]-1H-pyrazolo[3,4-d]pyrimidin-1-yl}-4-fluoro-3-hydroxytetrahydrofuran-2-yl]methyl sulfamate]
7.00 to 7.30	–	68	Cc1cccc(Sc2nn([C@@H]3O[C@H](COS(N)(=O)=O)[C@@H](O)[C@@H]3F)c3ncnc(N)c23)n1 [Compound I-102, [(2R,3R,4S,5R)-5-{4-amino-3-[(6-methylpyridin-2-yl)sulfanyl]-1H-pyrazolo[3,4-d]pyrimidin-1-yl}-4-fluoro-3-hydroxytetrahydrofuran-2-yl]methyl sulfamate]
> 7.70	–	84	Nc1ncnc2c1c(SC1CCCC1)nn2[C@@H]1O[C@H](COS(N)(=O)=O)[C@@H](O)[C@@H]1F [Compound I-103, {(2R,3R,4S,5R)-5-[4-amino-3-(cyclopentylsulfanyl)-1H-pyrazolo[3,4-d]pyrimidin-1-yl]-4-fluoro-3-hydroxytetrahydrofuran-2-yl}methyl sulfamate]
6.30 to 7.00	–	38	CCN(CC)CCSc1nn([C@@H]2O[C@H](COS(N)(=O)=O)[C@@H](O)[C@@H]2F)c2ncnc(N)c12 [Compound I-104, [(2R,3R,4S,5R)-5-(4-amino-3-{[2-(diethylamino)ethyl]sulfanyl}-1H-pyrazolo[3,4-d]pyrimidin-1-yl)-4-fluoro-3-hydroxytetrahydrofuran-2-yl]methyl sulfamate]
6.30 to 7.00	42	–	COc1nn([C@@H]2O[C@H](COS(N)(=O)=O)[C@@H](O)[C@@H]2F)c2ncnc(N)c12 [Compound I-105, [(2R,3R,4S,5R)-5-(4-amino-3-methoxy-1H-pyrazolo[3,4-d]pyrimidin-1-yl)-4-fluoro-3-hydroxytetrahydrofuran-2-yl]methyl Sulfamate]
7.30 to 7.70	78	–	Nc1ncnc2c1c(Sc1cccc(Cl)c1)nn2[C@@H]1O[C@H](COS(N)(=O)=O)[C@@H](O)[C@@H]1F [Compound I-106, [(2R,3R,4S,5R)-5-{4-amino-3-[(3-chlorophenyl)sulfanyl]-1H-pyrazolo[3,4-d]pyrimidin-1-yl}-4-fluoro-3-hydroxytetrahydrofuran-2-yl]methyl Sulfamate]
7.00 to 7.30	–	61	COc1cccc(Sc2nn([C@@H]3O[C@H](COS(N)(=O)=O)[C@@H](O)[C@@H]3F)c3ncnc(N)c23)n1 [Compound I-107, [(2R,3R,4S,5R)-5-{4-amino-3-[(6-methoxypyridin-2-yl)sulfanyl]-1H-pyrazolo[3,4-d]pyrimidin-1-yl}-4-fluoro-3-hydroxytetrahydrofuran-2-yl]methyl sulfamate]
< 6.30	–	19	Nc1ncnc2c1c(C1CC1)nn2[C@@H]1O[C@H](COS(N)(=O)=O)[C@@H](O)[C@@H]1F [Compound I-108, [(2R,3R,4S,5R)-5-(4-amino-3-cyclopropyl-1H-pyrazolo[3,4-d]pyrimidin-1-yl)-4-fluoro-3-hydroxytetrahydrofuran-2-yl]methyl sulfamate]
7.30 to 7.70	–	82	Nc1ncnc2c1c(Sc1ccccc1F)nn2[C@@H]1O[C@H](COS(N)(=O)=O)[C@@H](O)[C@@H]1F [Compound I-109, [(2R,3R,4S,5R)-5-{4-amino-3-[(2-fluorophenyl)sulfanyl]-1H-pyrazolo[3,4-d]pyrimidin-1-yl}-4-fluoro-3-hydroxytetrahydrofuran-2-yl]methyl sulfamate]
7.00 to 7.30	–	56	Cc1cc(Sc2nn([C@@H]3O[C@H](COS(N)(=O)=O)[C@@H](O)[C@@H]3F)c3ncnc(N)c23)c(C)o1 [Compound I-110, [(2R,3R,4S,5R)-5-{4-amino-3-[(2,5-dimethyl-3-furyl)sulfanyl]-1H-pyrazolo[3,4-d]pyrimidin-1-yl}-4-fluoro-3-hydroxytetrahydrofuran-2-yl]methyl sulfamate]
7.30 to 7.70	–	73	Nc1ncnc2c1c(Sc1ccc([N+](=O)[O-])cn1)nn2[C@@H]1O[C@H](COS(N)(=O)=O)[C@@H](O)[C@@H]1F [Compound I-111, [(2R,3R,4S,5R)-5-{4-amino-3-[(5-nitropyridin-2-yl)sulfanyl]-1H-pyrazolo[3,4-d]pyrimidin-1-yl}-4-fluoro-3-hydroxytetrahydrofuran-2-yl]methyl sulfamate]
6.30 to 7.00	–	44	Cn1ccnc1CSc1nn([C@@H]2O[C@H](COS(N)(=O)=O)[C@@H](O)[C@@H]2F)c2ncnc(N)c12 [Compound I-112, [(2R,3R,4S,5R)-5-(4-amino-3-{[(1-methyl-1H-imidazol-2-yl)methyl]sulfanyl}-1H-pyrazolo[3,4-d]pyrimidin-1-yl)-4-fluoro-3-hydroxytetrahydrofuran-2-yl]methyl sulfamate]
> 7.70	–	89	Nc1ncnc2c1c(Sc1ccccn1)nn2[C@@H]1O[C@H](COS(N)(=O)=O)[C@@H](O)[C@@H]1F [Compound I-113, {(2R,3R,4S,5R)-5-[4-amino-3-(pyridin-2-ylsulfanyl)-1H-pyrazolo[3,4-d]pyrimidin-1-yl]-4-fluoro-3-hydroxytetrahydrofuran-2-yl}methyl sulfamate]
> 7.70	–	90	Cc1ccnc(Sc2nn([C@@H]3O[C@H](COS(N)(=O)=O)[C@@H](O)[C@@H]3F)c3ncnc(N)c23)c1 [Compound I-114, [(2R,3R,4S,5R)-5-{4-amino-3-[(4-methylpyridin-2-yl)sulfanyl]-1H-pyrazolo[3,4-d]pyrimidin-1-yl}-4-fluoro-3-hydroxytetrahydrofuran-2-yl]methyl sulfamate]
7.30 to 7.70	73	–	CSc1nn([C@@H]2O[C@H](COS(N)(=O)=O)[C@@H](O)[C@@H]2F)c2ncnc(N)c12 [Compound I-115, {(2R,3R,4S,5R)-5-[4-amino-3-(methylsulfanyl)-1H-pyrazolo[3,4-d]pyrimidin-1-yl]-4-fluoro-3-hydroxytetrahydrofuran-2-yl}methyl Sulfamate]
7.30 to 7.70	–	75	Nc1ncnc2c1c(Sc1cccc(F)c1)nn2[C@@H]1O[C@H](COS(N)(=O)=O)[C@@H](O)[C@@H]1F [Compound I-116, [(2R,3R,4S,5R)-5-{4-amino-3-[(3-fluorophenyl)sulfanyl]-1H-pyrazolo[3,4-d]pyrimidin-1-yl}-4-fluoro-3-hydroxytetrahydrofuran-2-yl]methyl sulfamate]
